Measurements as given in patent publication US20250302927A1, “MODIFIED FACTOR XA POLYPEPTIDES AND METHODS OF USE” (The United States of America, as represented by the …, priority 2022, published 2025).
One block for each molecule: values may come before it.

Legend:
Factor VII (FVII) = molecular target: T1, Factor VII (FVII) (Homo sapiens, UniProt P08709); assay: 1H NMR binding of apixaban to Factor VII; conditions: stoichiometric amounts, FIG. 1H
T1 sequence (P08709 61-466): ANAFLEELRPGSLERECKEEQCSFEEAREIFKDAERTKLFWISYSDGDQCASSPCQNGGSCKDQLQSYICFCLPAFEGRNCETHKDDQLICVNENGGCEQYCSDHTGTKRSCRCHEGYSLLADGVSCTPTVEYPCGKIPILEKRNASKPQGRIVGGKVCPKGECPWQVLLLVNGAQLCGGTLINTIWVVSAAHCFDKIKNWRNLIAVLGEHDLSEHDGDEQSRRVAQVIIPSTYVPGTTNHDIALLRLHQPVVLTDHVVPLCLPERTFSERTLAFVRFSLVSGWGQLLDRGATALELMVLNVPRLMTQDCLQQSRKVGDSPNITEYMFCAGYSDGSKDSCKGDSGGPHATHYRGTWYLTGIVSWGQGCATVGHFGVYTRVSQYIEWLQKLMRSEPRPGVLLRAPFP
Text: FIGS. 1A-1H show design and functional characterization of low affinity FXa variants. FIG. 1A illustrates the computational strategy using RosettaDesign and homology insertion. […] Variants 69 and 70 are located on the same region between H311 and T318. […] FIG. 1F is a graph showing the rate of chromogenic substrate cleavage in pure buffer systems by FXa variants at different concentrations. […] Values for IC50±SD were obtained from fitted curves. […] The top spectrum is the result of superposition of ligand and protein signals with no alteration. The reference NMR spectrum (middle) contains only sharp signals, as expected for an NMR spectrum of a small molecule.
The final models allowed identification of clashes with apixaban. Following manual inspection of the models, 21 designs were selected. […] (ii) Two proteins were used as homology models to identify potential mutations to include as insertions. The human factor VII (FVII) (PDB ID: 1DAN) crystal structure was superimposed onto the human FXa (PDB ID: 2P16) crystal structure and differences in amino acid identity were analyzed. Final insertion identities were based on proximity to binding pocket and length. […] Seven FXa variants were selected based on this strategy. Some of these designs failed experimental validations. In a follow up round of homology-based designs, the insertions from Factor VII were decreased in length and number. […]

Male CD-1 mice = assay: Tail clip bleeding model; type: in vivo; conditions: for Bleeding profile (bleeding graphs): apixaban 4 mg/kg, FIG. 4D
Procedure: Tail clip bleeding model: Animal experiments were performed at the U.S. FDA/CBER Division of Veterinary Services in accordance with the protocol approved by the institutional animal care and use committee (IACUC). Male CD-1 mice (Charles River Laboratories, Kingston, NY, USA) were 5-8 weeks old weighing 28-34 grams. […] After 5 minutes, 3 mm of tail were cut, after which the tail was immersed in a tube with predefined volume of 0.9% NaCl at 37° C. and allowed to bleed for 30 minutes under close observation. Blood loss was determined by measuring hemoglobin content and expressed as μl/mouse.
The design of the in vivo study in mice is depicted in FIG. 3B. […] The tails of the mice were clipped, and bleeding monitored by measuring bleeding time (FIG. 3C) and blood loss (FIG. 3D). […] All bleeding episodes were plotted using the length and number of episodes of bleeds for each individual mouse (FIG. 3E) to determine the bleeding profiles.
Additional experiments were performed in the mouse model, as above, but with the inclusion of andexanet alfa for comparison. The experimental strategy is depicted in FIG. 4A.

[1] = Inhibition of FXa variant chromogenic substrate cleavage by apixaban (IC50); type: biochemical, human; conditions: for IC50: apixaban, fixed amounts of FXa variants, increasing apixaban concentrations
Procedure: Chromogenic FXa activity assay: The FXa activity assay based on CS11(65)a chromogenic substrate (Biophen) was performed as described below. […] For each sample, substrate cleavage was calculated by taking the average rate over the time frame between 1 and 2 minutes.
Activity and inhibitory concentration were determined for a larger series of variants (FIGS. 2A and 2B). Activities for all variants were determined using the rate of chromogenic substrate cleavage in pure buffer system at different FXa concentrations. Variants were assigned into five brackets (FIG. 2A). […] To be assigned as potentially beneficial the combined scores were ***** but the individual score could not be less than **.

[2] = test system: tissue factor (TF)-triggered pooled normal human plasma; assay: Thrombin generation assay in plasma spiked with apixaban; type: biochemical
Procedure: Thrombin generation assay: The procoagulant activity of FXa variants was evaluated by a previously described thrombin generation assay in tissue factor (TF)-triggered pooled normal human plasma (Affinity Biologicals Inc, Ontario, Canada). […] Fluorescence (product of thrombin substrate consumption) was recorded in a kinetic mode at 37° C. using a Tecan Infinite F500 every 45 seconds for a period of 1.7 hours. In-house software was used to calculate calibrate thrombin generation assay (using an internal thrombin calibrator CAT® from Stago, Parsippany, NJ, USA) and calculate thrombin peak height parameter.

[3] = molecular target: T2, Tissue factor pathway inhibitor (TFPI) (Homo sapiens, UniProt P10646); assay: ACTICHROME TFPI assay; type: biochemical; conditions: 4 nM variants vs 100 nM andexanet alfa, FIG. 5
T2 construct: BioMedica Diagnostics (assay kit)
T2 sequence (P10646 29-304): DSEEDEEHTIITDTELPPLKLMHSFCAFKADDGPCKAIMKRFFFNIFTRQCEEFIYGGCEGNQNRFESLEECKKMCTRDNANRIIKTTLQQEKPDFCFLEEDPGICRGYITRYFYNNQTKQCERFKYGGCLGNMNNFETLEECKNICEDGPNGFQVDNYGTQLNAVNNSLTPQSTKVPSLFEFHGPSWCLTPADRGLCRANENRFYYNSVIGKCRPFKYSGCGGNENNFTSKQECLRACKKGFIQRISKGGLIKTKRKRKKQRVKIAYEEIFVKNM
Procedure: Tissue factor pathway inhibitor (TFPI) plays a very important role in regulation of the procoagulant activity of tissue factor (TF). […] TFPI activity was determined using ACTICHROME® TFPI assay (BioMedica Diagnostics) according to manufacturer's protocol.

[4] = molecular target: Tissue factor pathway inhibitor (TFPI), P10646

binding to FVII by NMR (Factor VII (FVII)): does not bind to FVII
Molecule: COc1ccc(-n2nc(C(N)=O)c3c2C(=O)N(c2ccc(N4CCCCC4=O)cc2)CC3)cc1 [apixaban, reference compound]
Bleeding profile (bleeding graphs) (Male CD-1 mice): mostly uninterrupted flow of blood
Bleeding time, apixaban group compared to the control group (Male CD-1 mice; tail clip, FIG. 3C): significantly greater

IC50 [1]: 151 to 250 nM
Molecule: Variant 65: modified Factor Xa polypeptide, G440A, S1 subsite, SEQ ID NO: 8

fold higher IC50 values for apixaban compared to the wild-type FXa ([1]; FIG. 1G): ~350 fold
IC50 [1]: > 251 nM
Molecule: Variant 61: modified Factor Xa polypeptide, W439A, S4 subsite, SEQ ID NO: 2
Bleeding time (Male CD-1 mice; 1 mg/kg infused 5 min after apixaban, FIG. 3C): significantly reduced bleeding time
Blood loss (Male CD-1 mice; 1 mg/kg infused 5 min after apixaban, FIG. 3D): successfully reversed the anticoagulant effect of apixaban
Bleeding profile (bleeding graphs) (Male CD-1 mice): multiple breaks in blood flowing from the tail cut
Bleeding time (Male CD-1 mice; apixaban dose of 4 mg/kg, FIG. 4B): significant decrease
Blood loss (Male CD-1 mice; apixaban dose of 4 mg/kg, FIG. 4C): significant decrease
Km ([2]; activity in the presence of a fixed amount (1 μM) of apixaban, read-out: apparent Km): 1.1 ± 0.171 µM
potency compared with wild type FXa ([2]; thrombin generation assay as worded): less potent than wild type FXa
response to TFPI (TFPI activity) [3]: much smaller response to TPFI compared to andexanet alfa

B1: FXa variant 70 (amino acids 312-317 replaced with STYVPG) (protein)
chain: GPANSFLEEMKKGHLERECMEETCSYEEAREVFEDSDKTNEFWNKYKDGDQCETSPCQNQGKCKDGLGEYTCTCLEGFEGKNCELFTRKLCSLDNGDCDQFCHEEQNSVVCSCARGYTLADNGKACIPTGPYPCGKQTLERRKRSVAQATSSSGEAPDSITWKPYDAADLDPTENPFDLLDFNQTQPERGDNNLTRIVGGQECKDGECPWQALLINEENEGFCGGTILSEFYILTAAHCLYQAKRFKVRVGDRNTEQEEGGEAVHEVEVVIKHSTYVPGTYDFDIAVLRLKTPITFRMNVAPACLPERDWAESTLMTQKTGIVSGFGRTHEKGRQSTRLKMLEVPYVDRNSCKLSSSFIITQNMFCAGYDTKQEDACQGDSGGPHVTRFKDTYFVTGIVSWGEGCARKGKYGIYTKVTAFLKWIDRSMKTRGLPKAKSHAPEVITSSPLK
TFPI activity (ACTICHROME TFPI assay) [4]: both variants #61 and #70 showed much smaller response to TPFI compared to andexanet alfa
